# Assay results from US7652022B2, “Diaryl urea derivatives useful for the treatment of protein kinase dependent diseases” (Novartis AG, priority 2002, dated 2010).
# Key:
# [1] = biological target: T1, human VEGF-R2 receptor (KDR) (Homo sapiens, UniProt P35968); experiment: Inhibition of VEGF-induced VEGF-R2 (KDR) autophosphorylation in transfected CHO cells, sandwich ELISA; format: cell-based; conditions: % inhibition at 10 μM
# T1 construct: expressed in transfected cells
# Description: The inhibition of VEGF-induced receptor autophosphorylation can be confirmed with a further in vitro experiments in cells such as transfected CHO cells, which permanently express human VEGF-R2 receptor (KDR), are seeded in complete culture medium (with 10% fetal calf serum=FCS) in 6-well cell-culture plates and incubated at 37° C. under 5% CO2 until they show about 80% confluency. The compounds to be tested are then diluted in culture medium (without FCS, with 0.1% bovine serum albumin) and added to the cells. (Controls comprise medium without test compounds). After two hours of incubation at 37° C., recombinant VEGF is added; the final VEGF concentration is 20 ng/ml. After a further five minutes incubation at 37° C., the cells are washed twice with ice-cold PBS (phosphate-buffered saline) and immediately lysed in 100 μl lysis buffer per well. The lysates are then centrifuged to remove the cell nuclei, and the protein concentrations of the supernatants are determined using a commercial protein assay (BIORAD). The lysates can then either be immediately used or, if necessary, stored at −20° C.
# The plates are then washed and the remaining free protein-binding sites are saturated with 3% TopBlock® (Juro, Cat. # TB232010) in phosphate buffered saline with Tween 20® (polyoxyethylen(20)sorbitane monolaurate, ICI/Uniquema) (PBST). The cell lysates (20 μg protein per well) are then incubated in these plates overnight at 4° C. together with an antiphosphotyrosine antibody coupled with alkaline phosphatase (PY20:AP from Zymed). […] The luminescence is measured in a Packard Top Count Microplate Scintillation Counter. The difference between the signal of the positive control (stimulated with VEGF) and that of the negative control (not stimulated with VEGF) corresponds to VEGF-induced VEGF-R2 phosphorylation (=100%). The activity of the tested substances is calculated as percent inhibition of VEGF-induced VEGF-R2 phosphorylation, wherein the concentration of substance that induces half the maximum inhibition is defined as the IC50 (inhibitory dose for 50% inhibition). […]
# [2] = biological target: T2, c-Abl kinase (His-tagged kinase domain of c-Abl) (Homo sapiens, UniProt P00519); experiment: c-Abl protein-tyrosine kinase in vitro enzyme filter binding assay; format: biochemical; conditions: % inhibition at 10 μM
# T2 construct: The His-tagged kinase domain of c-Abl is cloned and expressed in the baculovirus/Sf9 system; His tag; made in house; host or cells: Sf9 insect cells (baculovirus)
# T2 sequence (P00519 242-493 limits assumed): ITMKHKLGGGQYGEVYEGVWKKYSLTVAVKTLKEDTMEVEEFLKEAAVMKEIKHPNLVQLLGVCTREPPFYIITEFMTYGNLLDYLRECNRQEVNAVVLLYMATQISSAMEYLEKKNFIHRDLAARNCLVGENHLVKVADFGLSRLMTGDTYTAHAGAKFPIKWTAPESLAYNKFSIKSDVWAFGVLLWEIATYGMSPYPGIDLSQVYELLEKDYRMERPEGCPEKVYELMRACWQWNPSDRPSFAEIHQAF
# Description: An in vitro enzyme assay is performed in 96-well plates as a filter binding assay as described by Geissler et al. in Cancer Res. 1992; 52:4492-4498, with the following modifications. The His-tagged kinase domain of c-Abl is cloned and expressed in the baculovirus/Sf9 system as described by Bhat et al. in J. Biol. Chem. 1997; 272:16170-16175. A protein of 37 kD (c-Abl kinase) is purified by a two-step procedure over a Cobalt metal chelate column followed by an anion exchange column with a yield of 1-2 mg/L of Sf9 cells (Bhat et al., reference cited). The purity of the c-Abl kinase is >90% as judged by SDS-PAGE after Coomassie blue staining. The assay contains (total volume of 30 μL): c-Abl kinase (50 ng), 20 mM Tris·HCl, pH 7.5, 10 mM MgCl2, 10 μM Na3VO4, 1 mM DTT and 0.06 μCi/assay [γ^33 P]-ATP (5 μM ATP) using 30 μg/mL poly-Ala,Glu,Lys,Tyr-6:2:5:1 (Poly-AEKY, Sigma P1152) in the presence of 1% DMSO. Reactions are terminated by adding 10 μL of 250 mM EDTA and 30 μL of the reaction mixture is transferred onto Immobilon-PVDF membrane (Millipore, Bedford, Mass., USA) previously soaked for 5 min with methanol, rinsed with water, then soaked for 5 min with 0.5% H3PO4 and mounted on vacuum manifold with disconnected vacuum source. After spotting all samples, vacuum is connected and each well rinsed with 200 μL 0.5% H3PO4. Membranes are removed and washed on a shaker with 0.5% H3PO4 (4 times) and once with ethanol. Membranes are counted after drying at ambient temperature, mounting in Packard TopCount 96-well frame, and addition of 10 μL/well of Microscint™ (Packard).
# Enzymatic (c-Abl, KDR, Flt3) data are given on Table 17 (% inhibition at 10 μM). (Measurements are made as described above in the general description).
# T1 sequence (P35968 20-1356): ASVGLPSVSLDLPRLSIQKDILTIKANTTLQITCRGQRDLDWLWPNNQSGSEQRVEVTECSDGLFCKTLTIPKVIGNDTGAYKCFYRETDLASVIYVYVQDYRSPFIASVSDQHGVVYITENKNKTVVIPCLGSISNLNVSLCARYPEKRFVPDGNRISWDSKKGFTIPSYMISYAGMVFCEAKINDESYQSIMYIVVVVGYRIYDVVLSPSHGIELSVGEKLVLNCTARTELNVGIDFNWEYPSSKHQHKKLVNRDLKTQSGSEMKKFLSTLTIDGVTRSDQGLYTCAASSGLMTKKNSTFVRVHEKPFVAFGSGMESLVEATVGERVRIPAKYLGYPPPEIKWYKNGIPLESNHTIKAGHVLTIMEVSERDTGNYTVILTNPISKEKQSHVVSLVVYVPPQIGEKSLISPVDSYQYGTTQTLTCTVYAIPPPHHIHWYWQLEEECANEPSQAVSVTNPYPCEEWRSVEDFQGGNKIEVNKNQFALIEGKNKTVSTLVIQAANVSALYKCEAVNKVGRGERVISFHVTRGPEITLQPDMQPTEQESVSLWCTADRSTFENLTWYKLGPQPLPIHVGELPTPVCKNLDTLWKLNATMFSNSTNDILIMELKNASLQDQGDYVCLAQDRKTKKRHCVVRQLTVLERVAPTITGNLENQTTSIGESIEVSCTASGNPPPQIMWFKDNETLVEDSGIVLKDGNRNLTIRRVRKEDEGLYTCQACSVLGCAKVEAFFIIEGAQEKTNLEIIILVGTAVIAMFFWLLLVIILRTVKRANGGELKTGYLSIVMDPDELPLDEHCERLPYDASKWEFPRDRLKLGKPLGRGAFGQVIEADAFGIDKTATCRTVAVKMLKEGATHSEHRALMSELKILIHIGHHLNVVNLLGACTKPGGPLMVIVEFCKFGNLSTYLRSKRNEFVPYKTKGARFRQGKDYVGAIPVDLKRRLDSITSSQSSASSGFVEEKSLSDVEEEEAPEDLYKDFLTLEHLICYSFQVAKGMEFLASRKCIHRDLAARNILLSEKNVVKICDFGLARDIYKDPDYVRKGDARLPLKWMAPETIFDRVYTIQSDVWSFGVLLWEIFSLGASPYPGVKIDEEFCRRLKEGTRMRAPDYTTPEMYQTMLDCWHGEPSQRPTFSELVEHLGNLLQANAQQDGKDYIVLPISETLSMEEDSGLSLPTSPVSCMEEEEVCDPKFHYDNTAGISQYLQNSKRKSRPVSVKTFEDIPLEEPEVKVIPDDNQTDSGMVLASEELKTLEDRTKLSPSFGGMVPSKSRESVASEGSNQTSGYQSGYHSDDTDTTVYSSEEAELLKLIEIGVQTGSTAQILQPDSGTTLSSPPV
KDR trans (% at 10 μM) [1],c-Abl (% at 10 μM) [2],melting point,Structure (SMILES)
99%,59%,–,Cc1ccc(NC(=O)Nc2ccc(Oc3ccncc3)cc2)cc1 [Example 4]
99%,46%,–,CCc1ccc(NC(=O)N(C)c2ccc(Oc3ccncc3)cc2)cc1 [Example 5]
100%,75%,–,CN(C(=O)Nc1cccc(C(F)(F)F)c1)c1ccc(Oc2ccncc2)cc1 [Example 6]
97%,47%,–,CCCc1ccc(NC(=O)N(C)c2ccc(Oc3ccncc3)cc2)cc1 [Example 7]
78%,48%,–,Cc1ccc(NC(=O)N(C)c2ccc(Oc3ccncc3)cc2)cc1 [Example 8]
92%,100%,–,O=C(Nc1ccc(Oc2ccncc2)cc1)Nc1ccc(Br)c(C(F)(F)F)c1 [Example 9]
100%,98%,–,O=C(Nc1ccc(Oc2ccncc2)cc1)Nc1ccc(OCC(F)(F)F)c(C(F)(F)F)c1 [Example 10]
100%,95%,–,COc1cc(NC(=O)Nc2ccc(Oc3ccncc3)cc2)cc(C(F)(F)F)c1 [Example 11]
97%,33%,–,CCCc1ccc(NC(=O)Nc2ccc(Cc3ccncc3)cc2)cc1 [Example 12]
98%,36%,–,CCc1ccc(NC(=O)Nc2ccc(Cc3ccncc3)cc2)cc1 [Example 13]
97%,26%,–,Cc1ccc(NC(=O)Nc2ccc(Cc3ccncc3)cc2)cc1 [Example 14]
99%,71%,–,O=C(Nc1ccc(Cc2ccncc2)cc1)Nc1cccc(C(F)(F)F)c1 [Example 15]
99%,66%,–,"CCc1ccc(NC(=O)Cc2ccc(Oc3ccncc3)cc2)cc1 [Example 16, N-(4-pyridin-4-yl-oxy-phenyl)acetyl-(4-ethyl-phenyl)-amide]"
96%,18%,–,Cc1ccc(NC(=O)Cc2ccc(Oc3ccncc3)cc2)cc1 [Example 17]
99%,61%,–,CCCc1ccc(NC(=O)Cc2ccc(Oc3ccncc3)cc2)cc1 [Example 18]
86%,92%,171 to 172.5 °C,"O=C(Nc1cccc(C(F)(F)F)c1)N1CCc2cc(Oc3ccncc3)ccc21 [Example 19, 5(4-pyridyloxy)-N-(3-trifluoromethyl-phenyl)amino-carbonyl-2,3-dihydroindole]"
93%,84%,185.5 to 188 °C,O=C(Nc1cccc(C(F)(F)F)c1)N1CCCc2cc(Oc3ccncc3)ccc21 [Example 20]
100%,70%,187.4 to 189.7 °C,"O=C(Nc1ccc(Oc2cc(Cl)ncn2)cc1)Nc1cccc(C(F)(F)F)c1 [Example 21, N-(4-(6-Chloropyrimidin-4-yl)-oxyphenyl)-N′-(3-trifluoromethylphenyl)-urea]"
98%,100%,–,Cc1cc(Oc2ccc(NC(=O)Nc3cccc(C(F)(F)F)c3)cc2)ccn1 [Example 30]
96%,98%,–,O=C(Nc1ccc(Oc2cc(Nc3ccc(O)cc3)ncn2)cc1)Nc1ccc(OCC(F)(F)F)c(C(F)(F)F)c1 [Example 32]
